Laboratory results as given in patent publication US20160235069A1, “N-ACRYLIMINO HETEROCYCLIC COMPOUNDS” (BASF SE, priority 2013, published 2016).
Read-outs that look alike come from different tables or passages of the source.

What was measured:
Format in all cases: in vivo
Nilaparvata lugens = test: Rice brown plant hopper (Nilaparvata lugens), sprayed rice seedlings; conditions: 72 h, read-out: mortality in comparison with untreated controls
Protocol: (§1) Rice seedlings are cleaned and washed 24 hours before spraying. The active compounds is formulated in 50:50 acetone:water (vol:vol) and 0.1% vol/vol surfactant (EL 620) was added. Potted rice seedlings are sprayed with 5 ml test solution, air dried, placed in cages and inoculated with 10 adults. Treated rice plants are kept at about 28-29° C. and relative humidity of about 50-60%. Percent mortality is recorded after 72 hours.

Aphis craccivora = test: Cowpea aphid (Aphis craccivora), sprayed potted cowpea plants; conditions: 72 h, read-out: mortality in comparison with untreated controls
Protocol: The active compound is dissolved at the desired concentration in a mixture of 1:1 (vol:vol) distilled water: acetone. Surfactant (Alkamuls® EL 620) is added at a rate of 0.1% (vol/vol). The test solution is prepared at the day of use.
Potted cowpea plants are colonized with approximately 50-100 aphids of various stages by manually transferring a leaf tissue cut from infested plant 24 hours before application. Plants are sprayed after the pest population has been recorded. Treated plants are maintained on light carts at about 28° C. Percent mortality is assessed after 72 hours.

Aphis gossypii = test: Cotton aphid (Aphis gossypii), sprayed potted plants; conditions: 72 h, read-out: mortality in comparison with untreated controls
Nephotettix virescens = test: Rice green leafhopper (Nephotettix virescens), sprayed rice seedlings; conditions: read-out: mortality in comparison with untreated controls
Protocol: as §1, with “compounds are” for “compounds is”, “acetone:water (vol:vol),” for “acetone:water (vol:vol)”, “620) is” for “620) was”

Myzus persicae = test: Green peach aphid (Myzus persicae), systemic, artificial diet in 96-well plates; conditions: 72 h, read-out: mortality in comparison with untreated controls
Source text: General conditions: If not otherwise specified, most test solutions are to be prepared as follows: The active compound is to be dissolved at the desired concentration in a mixture of 1:1 (vol:vol) distilled water:acteon. Further, the test solutions are to be prepared at the day of use (and, if not otherwise specified, in general at concentrations wt/vol).
For evaluating control of green peach aphid (Myzus persicae) through systemic means, the test unit consists of 96-well-microtiter plates containing liquid artificial diet under an artificial membrane.
The compounds are formulated using a solution containing 75% v/v water and 25% v/v DMSO. Different concentrations of formulated compounds are pipetted into the aphid diet, using a custom built pipetter, at two replications.
After application, 5-8 adult aphids are placed on the artificial membrane inside the microtiter plate wells. The aphids are then allowed to suck on the treated aphid diet and incubated at about 23+1° C. and about 50+5% relative humidity for 3 days. Aphid mortality and fecundity is then visually assessed.

Megoura viciae = test: Vetch aphid (Megoura viciae), contact or systemic, broad bean leaf disks; conditions: foliar, 120 h, read-out: mortality in comparison with untreated controls
Protocol: For evaluating control of vetch aphid (Megoura viciae) through contact or systemic means the test unit consisted of 24-well-microtiter plates containing broad bean leaf disks.
The compounds were formulated using a solution containing 75% v/v water and 25% v/v DMSO. Different concentrations of formulated compounds were sprayed onto the leaf disks at 2.5 μl, using a custom built micro atomizer, at two replications.
After application, the leaf disks were air-dried and 5-8 adult aphids were placed on the leaf disks inside the microtiter plate wells. The aphids were then allowed to suck on the treated leaf disks and were incubated at about 23±1° C. and about 50±5% relative humidity for 5 days. Aphid mortality and fecundity was then visually assessed.

Dichromothrips corbetti = test: Orchid thrips (Dichromothrips corbetti), floral-immersion technique; conditions: 72 h, read-out: mortality in comparison with untreated controls
Protocol: Dichromothrips corbetti adults used for bioassay are obtained from a colony maintained continuously under laboratory conditions. For testing purposes, the test compound is diluted in a 1:1 mixture of acetone:water (vol:vol), plus 0.01% vol/vol Alkamuls® EL 620 surfactant.
Thrips potency of each compound is evaluated by using a floral-immersion technique. Plastic petri dishes are used as test arenas. All petals of individual, intact orchid flowers are dipped into treatment solution and allowed to dry. Treated flowers are placed into individual petri dishes along with about 20 adult thrips. The petri dishes are then covered with lids. All test arenas are held under continuous light and a temperature of about 28° C. for duration of the assay. After 3 days, the numbers of live thrips are counted on each flower, and along inner walls of each petri dish. The percent mortality is recorded 72 hours after treatment.

Plutella xylostella = test: Diamond back moth (Plutella xylostella), dipped cabbage leaves; conditions: 3rd instar larvae on dipped cabbage leaves, 72 hours after treatment, read-out: mortality in comparison with untreated controls
Protocol: The active compound is dissolved at the desired concentration in a mixture of 1:1 (vol:vol) distilled water: acetone. Surfactant (Kinetic HV) is added at a rate of 0.01% (vol/vol). The test solution is prepared at the day of use.
Leaves of cabbage were dipped in test solution and air-dried. Treated leaves were placed in petri dishes lined with moist filter paper and inoculated with ten 3rd instar larvae. Mortality was recorded 72 hours after treatment. Feeding damages were also recorded using a scale of 0-100%.

Anthonomus grandis = test: Boll weevil (Anthonomus grandis), insect diet with eggs in 96-well plates; conditions: 120 h, read-out: mortality in comparison with untreated controls
Protocol: For evaluating control of boll weevil (Anthonomus grandis) the test unit consisted of 96-well-microtiter plates containing an insect diet and 5-10 A. grandis eggs.
The compounds were formulated using a solution containing 75% v/v water and 25% v/v DMSO. Different concentrations of formulated compounds were sprayed onto the insect diet at 5 μl, using a custom built micro atomizer, at two replications.
After application, microtiter plates were incubated at about 25±1° C. and about 75±5% relative humidity for 5 days. Egg and larval mortality was then visually assessed.

C=C(F)C(=O)/N=c1\ccccn1Cc1ccc(Cl)nc1 [Compound E1.3]
≥ 75%: mortality at 500 ppm (Nilaparvata lugens) | mortality at 500 ppm (Aphis craccivora) | mortality at 500 ppm (Aphis gossypii) | mortality at 500 ppm (Nephotettix virescens; 72 h) | mortality at 2500 ppm (Myzus persicae) | mortality at 2500 ppm (Megoura viciae) | mortality at 500 ppm (Dichromothrips corbetti)

C=C(F)C(=O)/N=c1\ccccn1Cc1cnn(C)c1 [Compound E1.16]
≥ 75%: mortality at 500 ppm (Plutella xylostella) | mortality at 500 ppm (Nephotettix virescens; 500 ppm, adults on sprayed rice seedlings, after 72 hours) | mortality at 2500 ppm (Myzus persicae; 2500 ppm, adult aphids on treated diet, 3 days) | mortality at 2500 ppm (Megoura viciae; 2500 ppm, adult aphids on sprayed leaf disks, 5 days)

CC(C)(C)C/C=C(\C#N)C(=O)/N=c1\ccccn1Cc1ccc(Cl)nc1 [Compound E1.28]
≥ 75%: mortality at 2500 ppm (Anthonomus grandis) | mortality at 500 ppm (Aphis craccivora) | mortality at 2500 ppm (Myzus persicae) | mortality at 2500 ppm (Megoura viciae)
